Key:
[1] = system: acetaminophen-induced hepatotoxicity; assay: Protection against acetaminophen-induced hepatotoxicity in mice; assay type: in vivo; details: prodrug 2.45 mmole/kg ip 30 min later; for Survival (48 hr) (%) / Survival (48 hr) (Number): LD90 acetaminophen 750 mg/kg ip; for Survival (48 hr) (Number): survivors/total; for Number of Animals with necrosis 0 / Number of Animals with necrosis 1+ / Number of Animals with necrosis 2+ / Number of Animals with necrosis 3+ / Number of Animals with necrosis 4+: LD90 acetaminophen ip, liver histology, Mitchell rating
Experimental: Compounds 1a through 1h were evaluated in a mouse model for their ability to protect against the hepatotoxic action of acetaminophen. The experimental protocol involved the administration of an LD90 dose of acetaminophen, followed 30 min. later by the prodrug as potential protective agent. Toxicity was assessed based on overall survival data at 48 hrs, as well as on histological criteria of hepatocellular damage using the rating system of J. R. Mitchell et al., J. Pharmacol. Exp. Ther., 187, 185 (1973).
The prodrugs of L-cysteine were examined for their ability to protect against acetaminophen-induced hepatotoxicity in mice essentially as described by H. T. Nagasawa et al., J. Med. Chem., 25, 489 (1982). Male Swiss-Webster mice (19 to 31 g) were fasted overnight but given free access to water. An LD90 dose of acetaminophen (750 mg/kg, 4.97 mmol/kg, ip) was then administered, followed 30 min later by a 2.45 mmole/kg ip dose of the L-cysteine prodrug. All injection solutions were freshly prepared in sterile water, except where solubility problems required the use of sterile 0.1N aqueous NaHCO3 or a slurry of the prodrug in 2% aqueous carboxymethylcellulose (CMC). The animals were then given food and water ad libitum and were observed over a 48-hr period.
Represenative sections from the central lobe of the liver were obtained from those animals found dead at 12, 24 and 48 hr. Survivors at 48 hr were sacrificed by cervical dislocation and the liver sections were similarly excised and sectioned. All specimens were fixed on 10% buffered formalin and in Form-a-Less (PMP, Inc., San Diego, CA) and stained with hematoxylin and eosin. The extent of hepatic necrosis was evaluated histologically by an investigator who had no knowledge of the experimental protocols or sample identity.

rat hepatocytes [2] = assay: Stimulation of glutathione (GSH) biosynthesis in isolated rat hepatocytes by L-cysteine prodrugs; assay type: cell-based; details: for [GSH] ± SE: control 35.4 ± 0.78
Experimental: (§1) Rat hepatocytes were isolated following the methods of P. O. Seglen, Exper. […] After final plating, the hepatocytes were maintained in culture for 24 hr prior to use. Only primary cultures were used throughout the studies. The hepatocytes were incubated with the cysteine prodrugs for a 4-hr period, and after removal of media by aspiration, the cells were rinsed with cold phosphate-buffered saline and deproteinized with 5% sulfosalicylic acid. […] For the inhibition studies with BSO, the cells were pre-exposed to BSO (0.20 mM) before treatment with the L-cysteine prodrugs.

rat hepatocytes [3] = assay: Inhibitory effect of buthionine sulfoximine (BSO) on GSH elevation elicited by L-cysteine prodrugs in rat hepatocytes; assay type: cell-based; details: for [GSH] ± SE: rat hepatocytes pre-exposed to BSO 0.2 mM, 4 hr; for [GSH] Rel. to Controls: rat hepatocytes, BSO 0.2 mM, 240 min
Experimental: as §1

[4] = system: heptatotoxic dosages of acetaminophen; details: previous studies (Nagasawa 1984; Meister US 4,335,210); cited from earlier work
[5] = Hepatocyte, rat hepatocytes, prodrug 1.0 mM, 4 hr incubation, read-out: [GSH] Rel. to Controls
[6] = rat hepatocytes, prodrug 1.0 mM, 4 hr incubation

## O=C(O)[C@@H]1CSC([C@@H](O)[C@@H](O)[C@H](O)[C@H](O)CO)N1 (stereo partly drawn) [ManCys, 2(R,S)-D-manno-1',2',3',4',5'-Pentahydroxypentylthiazolidine-4(R)-carboxylic Acid]
[1]
  Survival (48 hr) (%): 40%
  Survival (48 hr) (Number): 4/10
  Number of Animals with necrosis 0: 3
  Number of Animals with necrosis 1+: 0
  Number of Animals with necrosis 2+: 1
  Number of Animals with necrosis 3+: 0
  Number of Animals with necrosis 4+: 6
Rat hepatocytes [2]; [5]
  fold induction at 1000 µM: 1.6
Rat hepatocytes [2]; [6]
  [GSH] ± SE: 57.8 ± 0.87 nmol/10^6 cells
Rat hepatocytes [3]; prodrug 1.0 mM
  [GSH] ± SE: 18.9 ± 1.87 nmol/10^6 cells
  [GSH] Rel. to Controls: 0.5

## O=C(O)[C@@H]1CSC([C@@H](O)[C@@H](O)[C@H](O)CO)N1 (stereo partly drawn) [LyxCys, 2(R,S)-D-lyxo-1',2',3',4'-Tetrahydroxybutylthiazolidine-4(R)-carboxylic Acid]
[1]
  Survival (48 hr) (%): 30%
  Survival (48 hr) (Number): 3/10
  Number of Animals with necrosis 0: 0
  Number of Animals with necrosis 1+: 0
  Number of Animals with necrosis 2+: 0
  Number of Animals with necrosis 3+: 1
  Number of Animals with necrosis 4+: 9
Rat hepatocytes [2]; [5]
  fold induction at 1000 µM: 1.3
Rat hepatocytes [2]; [6]
  [GSH] ± SE: 45.9 ± 1.95 nmol/10^6 cells
Rat hepatocytes [3]; prodrug 1.0 mM
  [GSH] ± SE: 22.4 ± 1.98 nmol/10^6 cells
  [GSH] Rel. to Controls: 0.6

## CCCC1N[C@H](C(=O)O)CS1 (stereo partly drawn) [2(R,S)-n-propyl-]
[4]
  protection of mice from hepatotoxic dosages of acetaminophen: can protect mice

## O=C1N[C@H](C(=O)O)CS1 [L-2-oxothiazolidine-4-carboxylate]
[4]
  protection of mice from hepatotoxic dosages of acetaminophen: can protect mice

## O=C(O)[C@@H]1CSC([C@H](O)[C@@H](O)[C@@H](O)[C@H](O)CO)N1 (stereo partly drawn) [GalCys, 2(R,S)-D-galacto-1',2',3',4',5'-Pentahydroxypentylthiazolidine-4(R)-carboxylic Acid]
[1]
  Survival (48 hr) (%): 60%
  Survival (48 hr) (Number): 6/10
  Number of Animals with necrosis 0: 1
  Number of Animals with necrosis 1+: 3
  Number of Animals with necrosis 2+: 2
  Number of Animals with necrosis 3+: 0
  Number of Animals with necrosis 4+: 4
Rat hepatocytes [2]; [5]
  fold induction at 1000 µM: 1.6
Rat hepatocytes [2]; [6]
  [GSH] ± SE: 58.0 ± 2.00 nmol/10^6 cells
Rat hepatocytes [3]; prodrug 1.0 mM
  [GSH] ± SE: 23.2 ± 2.56 nmol/10^6 cells
  [GSH] Rel. to Controls: 0.7

## CC1N[C@H](C(=O)O)CS1 (stereo partly drawn) [2(R,S)-methylthiazolidine-4R-carboxylate]
[4]
  protection of mice from hepatotoxic dosages of acetaminophen: can protect mice

## O=C(O)[C@@H]1CSC([C@H](O)[C@@H](O)[C@H](O)[C@H](O)CO)N1 (stereo partly drawn) [GlcCys, 2(R,S)-D-gluco-1',2',3',4',5'-Pentahydroxypentylthiazolidine-4(R)-carboxylic Acid]
[1]
  Survival (48 hr) (%): 30%
  Survival (48 hr) (Number): 3/10
  Number of Animals with necrosis 0: 0
  Number of Animals with necrosis 1+: 2
  Number of Animals with necrosis 2+: 0
  Number of Animals with necrosis 3+: 1
  Number of Animals with necrosis 4+: 7
Rat hepatocytes [2]; [5]
  fold induction at 1000 µM: 2.1
Rat hepatocytes [2]; [6]
  [GSH] Rel. to Controls: over twice
  [GSH] ± SE: 75.2 ± 2.15 nmol/10^6 cells
Rat hepatocytes [3]; prodrug 1.0 mM
  [GSH] ± SE: 25.4 ± 0.99 nmol/10^6 cells
  [GSH] Rel. to Controls: 0.7

## CC(=O)N[C@@H](CS)C(=O)O [NAC, N-Acetyl-L-cysteine, reference compound]
[1]
  Survival (48 hr) (%): 94%
  Survival (48 hr) (Number): 17/18
  Number of Animals with necrosis 0: 13
  Number of Animals with necrosis 1+: 3
  Number of Animals with necrosis 2+: 0
  Number of Animals with necrosis 3+: 1
  Number of Animals with necrosis 4+: 1
Rat hepatocytes [2]; Rattus norvegicus, Hepatocyte, 4 h, read-out: [GSH] Rel. to Controls
  fold induction at 2500 µM: 1.3
Rat hepatocytes [2]; rat hepatocytes, 2.5 mM, 4 hr incubation
  [GSH] ± SE: 45.8 ± 1.27 nmol/10^6 cells
Rat hepatocytes [2]; rat hepatocytes, 2.5 times the concentration of the thiazolidine prodrugs
  raised GSH levels by: 30%
Rat hepatocytes [3]; 2.5 mM
  [GSH] ± SE: 25.5 ± 1.59 nmol/10^6 cells
  [GSH] Rel. to Controls: 0.7
[4]
  protection of mice from hepatotoxic dosages of acetaminophen: can protect mice

## O=C(O)[C@@H]1CSC([C@H](O)[C@H](O)[C@H](O)CO)N1 (stereo partly drawn) [RibCys, 2(R,S)-D-ribo-1',2',3',4'-Tetrahydroxybutylthiazolidine-4(R)-carboxylic Acid]
[1]
  Survival (48 hr) (%): 100%
  Survival (48 hr) (Number): 12/12
  Number of Animals with necrosis 0: 4
  Number of Animals with necrosis 1+: 2
  Number of Animals with necrosis 2+: 6
  Number of Animals with necrosis 3+: 0
  Number of Animals with necrosis 4+: 0
Rat hepatocytes [2]; [5]
  fold induction at 1000 µM: 1.7
Rat hepatocytes [2]; [6]
  [GSH] ± SE: 61.2 ± 1.52 nmol/10^6 cells
Rat hepatocytes [3]; prodrug 1.0 mM
  [GSH] ± SE: 16.2 ± 3.60 nmol/10^6 cells
  [GSH] Rel. to Controls: 0.5

## O=C(O)[C@@H]1CSC([C@@H](O)[C@H](O)[C@H](O)CO)N1 (mixture of isomers) [AraCys, 2(R,S)-D-arabino-1',2',3',4'-Tetrahydroxybutylthiazolidine-4(R)-carboxylic Acid]
[1]
  Survival (48 hr) (%): 40%
  Survival (48 hr) (Number): 4/10
  Number of Animals with necrosis 0: 0
  Number of Animals with necrosis 1+: 1
  Number of Animals with necrosis 2+: 2
  Number of Animals with necrosis 3+: 0
  Number of Animals with necrosis 4+: 7
Rat hepatocytes [2]; [5]
  fold induction at 1000 µM: 1.2
Rat hepatocytes [2]; [6]
  [GSH] ± SE: 42.9 ± 2.17 nmol/10^6 cells
Rat hepatocytes [3]; prodrug 1.0 mM
  [GSH] ± SE: 19.5 ± 3.75 nmol/10^6 cells
  [GSH] Rel. to Controls: 0.6

## CCCCCC1N[C@H](C(=O)O)CS1 (stereo partly drawn) [2(R,S)-n-pentyl]
[4]
  protection of mice from hepatotoxic dosages of acetaminophen: can protect mice

## O=C(O)[C@@H]1CSC([C@H](O)CO)N1 (stereo partly drawn) [GlycCys, 2(R,S)-D-glycero-1',2'-Dihydroxyethylthiazolidine-4(R)carboxylic Acid]
[1]
  Survival (48 hr) (%): 30%
  Survival (48 hr) (Number): 3/10
  Number of Animals with necrosis 0: 0
  Number of Animals with necrosis 1+: 0
  Number of Animals with necrosis 2+: 1
  Number of Animals with necrosis 3+: 2
  Number of Animals with necrosis 4+: 7
Rat hepatocytes [2]; [5]
  fold induction at 1000 µM: 1.3
Rat hepatocytes [2]; [6]
  [GSH] ± SE: 46.1 ± 1.10 nmol/10^6 cells
Rat hepatocytes [3]; prodrug 1.0 mM
  [GSH] ± SE: 18.3 ± 6.41 nmol/10^6 cells
  [GSH] Rel. to Controls: 0.5

## O=C(O)[C@@H]1CSC([C@H](O)[C@@H](O)[C@H](O)CO)N1 (stereo partly drawn) [XylCys, 2(R,S)-D-xylo-1',2',3',4'-Tetrahydroxybutylthiazolidine-4(R)-carboxylic Acid]
[1]
  Survival (48 hr) (%): 60%
  Survival (48 hr) (Number): 6/10
  Number of Animals with necrosis 0: 3
  Number of Animals with necrosis 1+: 2
  Number of Animals with necrosis 2+: 0
  Number of Animals with necrosis 3+: 0
  Number of Animals with necrosis 4+: 5
Rat hepatocytes [2]; [5]
  fold induction at 1000 µM: 1.6
Rat hepatocytes [2]; [6]
  [GSH] ± SE: 58.3 ± 0.99 nmol/10^6 cells
Rat hepatocytes [3]; prodrug 1.0 mM
  [GSH] ± SE: 22.6 ± 1.84 nmol/10^6 cells
  [GSH] Rel. to Controls: 0.8

Reference: patent publication US4868114A, “Method for elevating glutathione levels” (Regents of the University of Minnesota, priority 1989, dated 1989)
